Results: BindingDB's records for doi:10.1124/jpet.102.047092 (Case Western Reserve University, 2003)

Legend:
[1] = target: T1, Alpha-2B adrenergic receptor (Homo sapiens, UniProt P18089)
T1 sequence (P18089 whole entry): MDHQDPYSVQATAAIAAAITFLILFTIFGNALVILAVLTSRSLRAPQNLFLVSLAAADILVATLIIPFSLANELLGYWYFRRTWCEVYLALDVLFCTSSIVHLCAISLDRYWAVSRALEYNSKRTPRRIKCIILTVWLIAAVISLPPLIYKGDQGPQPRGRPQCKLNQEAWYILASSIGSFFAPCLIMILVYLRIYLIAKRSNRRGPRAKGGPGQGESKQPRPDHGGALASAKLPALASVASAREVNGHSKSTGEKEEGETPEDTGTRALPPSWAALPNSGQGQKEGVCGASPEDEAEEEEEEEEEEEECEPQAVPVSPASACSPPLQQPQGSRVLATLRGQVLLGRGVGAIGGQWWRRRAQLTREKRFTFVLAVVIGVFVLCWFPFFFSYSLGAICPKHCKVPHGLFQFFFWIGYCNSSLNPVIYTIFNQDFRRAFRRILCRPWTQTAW

[2] = target: T2, Vasopressin V1b receptor (Homo sapiens, UniProt P47901)
T2 sequence (P47901 whole entry): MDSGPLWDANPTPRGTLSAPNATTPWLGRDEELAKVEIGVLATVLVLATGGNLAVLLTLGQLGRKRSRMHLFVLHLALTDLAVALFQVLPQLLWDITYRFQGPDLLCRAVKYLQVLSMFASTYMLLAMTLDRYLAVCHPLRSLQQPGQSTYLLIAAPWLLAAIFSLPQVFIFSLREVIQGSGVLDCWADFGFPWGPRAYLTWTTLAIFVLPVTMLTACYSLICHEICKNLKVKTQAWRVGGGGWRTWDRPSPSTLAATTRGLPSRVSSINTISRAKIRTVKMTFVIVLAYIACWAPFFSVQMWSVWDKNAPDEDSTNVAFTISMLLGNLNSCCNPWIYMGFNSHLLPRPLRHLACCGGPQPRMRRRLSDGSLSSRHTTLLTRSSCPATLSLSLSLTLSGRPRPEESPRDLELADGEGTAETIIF

[3] = target: Histamine H4 receptor (Homo sapiens, UniProt Q9H3N8)
Histamine H4 receptor, sequence (Q9H3N8 whole entry): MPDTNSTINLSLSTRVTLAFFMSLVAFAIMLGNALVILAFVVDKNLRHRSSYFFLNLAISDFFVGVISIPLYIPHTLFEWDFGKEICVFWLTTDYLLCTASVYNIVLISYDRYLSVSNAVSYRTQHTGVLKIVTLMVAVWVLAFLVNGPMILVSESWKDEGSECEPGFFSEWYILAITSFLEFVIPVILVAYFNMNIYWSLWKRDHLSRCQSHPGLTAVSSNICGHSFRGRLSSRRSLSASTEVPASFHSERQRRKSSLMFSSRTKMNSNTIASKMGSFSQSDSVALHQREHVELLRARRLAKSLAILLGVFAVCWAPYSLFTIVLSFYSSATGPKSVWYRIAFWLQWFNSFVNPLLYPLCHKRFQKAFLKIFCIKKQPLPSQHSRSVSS

[4] = target: Beta-1 adrenergic receptor (Rattus norvegicus, UniProt P18090)
Beta-1 adrenergic receptor, sequence (P18090 whole entry): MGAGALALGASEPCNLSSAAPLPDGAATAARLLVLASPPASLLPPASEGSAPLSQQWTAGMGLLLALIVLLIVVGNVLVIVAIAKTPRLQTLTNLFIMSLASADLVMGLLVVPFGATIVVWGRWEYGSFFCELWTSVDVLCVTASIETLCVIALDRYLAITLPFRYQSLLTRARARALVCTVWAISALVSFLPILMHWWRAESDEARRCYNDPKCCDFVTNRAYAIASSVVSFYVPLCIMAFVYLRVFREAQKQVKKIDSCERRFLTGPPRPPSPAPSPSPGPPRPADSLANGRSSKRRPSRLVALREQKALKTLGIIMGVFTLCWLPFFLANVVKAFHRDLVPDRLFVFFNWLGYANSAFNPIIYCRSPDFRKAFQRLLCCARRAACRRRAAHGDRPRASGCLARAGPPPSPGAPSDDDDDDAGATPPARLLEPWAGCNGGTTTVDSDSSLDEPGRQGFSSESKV

[5] = target: Neuronal acetylcholine receptor subunit alpha-3 (Homo sapiens, UniProt P32297)
Neuronal acetylcholine receptor subunit alpha-3, sequence (P32297 whole entry): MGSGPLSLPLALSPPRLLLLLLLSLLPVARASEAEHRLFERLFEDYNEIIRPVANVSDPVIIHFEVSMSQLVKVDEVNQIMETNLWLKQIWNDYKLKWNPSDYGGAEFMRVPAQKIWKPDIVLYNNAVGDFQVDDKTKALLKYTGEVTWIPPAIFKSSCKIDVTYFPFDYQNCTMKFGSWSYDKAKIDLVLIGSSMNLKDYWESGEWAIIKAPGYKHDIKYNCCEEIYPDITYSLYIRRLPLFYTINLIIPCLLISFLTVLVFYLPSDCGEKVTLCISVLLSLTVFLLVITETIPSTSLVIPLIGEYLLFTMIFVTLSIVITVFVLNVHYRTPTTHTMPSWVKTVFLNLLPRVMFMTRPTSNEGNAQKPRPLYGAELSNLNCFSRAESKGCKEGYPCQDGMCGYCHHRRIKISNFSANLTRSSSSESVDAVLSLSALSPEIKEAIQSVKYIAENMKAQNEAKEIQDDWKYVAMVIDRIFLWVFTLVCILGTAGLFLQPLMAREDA

[6] = target: Metabotropic glutamate receptor 5 (Rattus norvegicus, UniProt P31424)
[7] = target: Metabotropic glutamate receptor 4 (Rattus norvegicus, UniProt P31423)
[8] = target: Metabotropic glutamate receptor 8 (Rattus norvegicus, UniProt P70579)
Metabotropic glutamate receptor 8, sequence (P70579 whole entry): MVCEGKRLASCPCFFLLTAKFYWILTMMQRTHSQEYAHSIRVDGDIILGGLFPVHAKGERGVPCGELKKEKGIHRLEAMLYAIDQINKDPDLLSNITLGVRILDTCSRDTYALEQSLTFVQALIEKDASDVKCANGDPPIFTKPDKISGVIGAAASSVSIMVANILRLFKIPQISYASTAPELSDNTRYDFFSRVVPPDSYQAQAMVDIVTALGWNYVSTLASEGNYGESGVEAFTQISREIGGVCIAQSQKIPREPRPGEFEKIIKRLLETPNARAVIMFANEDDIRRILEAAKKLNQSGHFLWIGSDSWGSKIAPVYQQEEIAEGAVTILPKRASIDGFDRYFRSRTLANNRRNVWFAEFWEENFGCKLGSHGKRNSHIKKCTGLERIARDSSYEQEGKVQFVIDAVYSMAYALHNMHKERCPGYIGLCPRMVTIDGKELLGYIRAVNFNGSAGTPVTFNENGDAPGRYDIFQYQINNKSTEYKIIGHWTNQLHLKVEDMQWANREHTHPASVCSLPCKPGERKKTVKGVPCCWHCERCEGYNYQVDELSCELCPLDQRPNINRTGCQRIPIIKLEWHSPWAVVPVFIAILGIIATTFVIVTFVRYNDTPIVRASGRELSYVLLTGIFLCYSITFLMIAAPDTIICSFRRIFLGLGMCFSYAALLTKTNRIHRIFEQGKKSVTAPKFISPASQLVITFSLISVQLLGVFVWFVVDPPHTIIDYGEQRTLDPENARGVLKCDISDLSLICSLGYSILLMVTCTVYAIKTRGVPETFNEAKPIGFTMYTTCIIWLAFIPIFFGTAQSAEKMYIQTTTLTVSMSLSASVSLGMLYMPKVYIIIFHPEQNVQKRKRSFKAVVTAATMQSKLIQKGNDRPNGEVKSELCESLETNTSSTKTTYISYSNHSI

[9] = target: Metabotropic glutamate receptor 6 (Rattus norvegicus, UniProt P35349)
Metabotropic glutamate receptor 6, sequence (P35349 whole entry): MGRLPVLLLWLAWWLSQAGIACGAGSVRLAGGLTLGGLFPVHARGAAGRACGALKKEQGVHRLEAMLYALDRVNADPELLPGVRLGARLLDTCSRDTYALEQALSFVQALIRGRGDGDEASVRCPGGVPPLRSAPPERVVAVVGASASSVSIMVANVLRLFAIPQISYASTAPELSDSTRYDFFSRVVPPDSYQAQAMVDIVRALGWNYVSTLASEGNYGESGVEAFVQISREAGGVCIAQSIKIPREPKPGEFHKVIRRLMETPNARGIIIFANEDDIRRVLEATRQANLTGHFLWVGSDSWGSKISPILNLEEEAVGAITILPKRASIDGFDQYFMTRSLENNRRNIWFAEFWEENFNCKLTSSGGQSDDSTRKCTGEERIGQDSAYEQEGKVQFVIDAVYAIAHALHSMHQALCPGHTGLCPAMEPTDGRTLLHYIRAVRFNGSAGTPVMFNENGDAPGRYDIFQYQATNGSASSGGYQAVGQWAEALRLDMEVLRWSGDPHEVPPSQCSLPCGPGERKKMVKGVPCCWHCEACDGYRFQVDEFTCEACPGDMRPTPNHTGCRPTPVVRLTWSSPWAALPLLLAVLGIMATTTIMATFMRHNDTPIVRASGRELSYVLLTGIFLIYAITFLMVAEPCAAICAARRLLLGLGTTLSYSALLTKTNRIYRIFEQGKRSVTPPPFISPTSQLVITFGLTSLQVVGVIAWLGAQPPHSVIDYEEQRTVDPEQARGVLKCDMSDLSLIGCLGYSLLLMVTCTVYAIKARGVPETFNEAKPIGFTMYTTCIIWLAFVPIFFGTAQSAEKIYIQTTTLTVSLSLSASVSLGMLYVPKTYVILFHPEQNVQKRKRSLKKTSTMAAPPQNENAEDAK

[10] = target: Metabotropic glutamate receptor 2 (Rattus norvegicus) (UniProt P31421)
[11] = target: Nischarin (Rattus norvegicus, UniProt Q4G017)
Nischarin, sequence (Q4G017 whole entry): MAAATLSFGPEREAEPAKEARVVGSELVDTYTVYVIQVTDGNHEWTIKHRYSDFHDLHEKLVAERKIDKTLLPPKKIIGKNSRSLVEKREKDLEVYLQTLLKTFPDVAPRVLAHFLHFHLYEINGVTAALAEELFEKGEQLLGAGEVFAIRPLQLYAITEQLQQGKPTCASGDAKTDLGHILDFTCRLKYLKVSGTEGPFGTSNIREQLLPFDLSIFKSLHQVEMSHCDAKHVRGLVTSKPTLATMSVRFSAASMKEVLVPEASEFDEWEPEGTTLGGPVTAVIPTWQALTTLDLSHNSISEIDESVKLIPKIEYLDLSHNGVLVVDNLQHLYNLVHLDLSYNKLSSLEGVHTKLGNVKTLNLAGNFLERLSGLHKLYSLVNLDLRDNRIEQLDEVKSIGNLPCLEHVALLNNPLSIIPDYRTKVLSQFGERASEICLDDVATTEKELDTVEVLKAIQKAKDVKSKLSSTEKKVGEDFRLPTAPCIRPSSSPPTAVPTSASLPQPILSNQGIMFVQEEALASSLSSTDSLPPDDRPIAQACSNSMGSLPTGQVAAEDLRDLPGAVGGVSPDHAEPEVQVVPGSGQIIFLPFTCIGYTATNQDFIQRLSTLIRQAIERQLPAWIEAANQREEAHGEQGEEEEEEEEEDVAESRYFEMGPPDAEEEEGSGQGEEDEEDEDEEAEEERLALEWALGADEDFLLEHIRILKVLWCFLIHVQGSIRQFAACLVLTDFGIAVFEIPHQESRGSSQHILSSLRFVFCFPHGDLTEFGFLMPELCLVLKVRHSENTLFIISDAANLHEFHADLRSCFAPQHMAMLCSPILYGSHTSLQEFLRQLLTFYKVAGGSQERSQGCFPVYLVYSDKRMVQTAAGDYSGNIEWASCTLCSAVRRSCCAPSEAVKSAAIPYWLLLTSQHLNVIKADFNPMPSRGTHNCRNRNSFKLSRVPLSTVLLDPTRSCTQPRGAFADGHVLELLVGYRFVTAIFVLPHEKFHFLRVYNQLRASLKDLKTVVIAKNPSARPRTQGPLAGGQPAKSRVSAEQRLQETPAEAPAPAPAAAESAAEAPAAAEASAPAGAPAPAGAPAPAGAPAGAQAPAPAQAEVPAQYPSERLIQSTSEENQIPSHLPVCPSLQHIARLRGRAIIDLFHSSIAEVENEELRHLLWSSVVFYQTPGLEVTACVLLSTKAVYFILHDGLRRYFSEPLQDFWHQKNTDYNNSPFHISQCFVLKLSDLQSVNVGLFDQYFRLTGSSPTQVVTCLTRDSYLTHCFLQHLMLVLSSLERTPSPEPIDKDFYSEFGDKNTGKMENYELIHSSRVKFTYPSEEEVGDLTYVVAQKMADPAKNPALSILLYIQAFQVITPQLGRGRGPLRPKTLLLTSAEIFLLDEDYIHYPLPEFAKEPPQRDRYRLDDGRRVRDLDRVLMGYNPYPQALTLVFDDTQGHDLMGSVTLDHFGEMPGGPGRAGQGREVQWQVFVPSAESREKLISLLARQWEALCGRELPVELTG

[12] = target: Metabotropic glutamate receptor 1 (Rattus norvegicus, UniProt P23385)

Compound	Ki [1] [µM]	Ki [2] [µM]	Ki [3] [µM]	Ki [4] [µM]	Ki [5] [µM]	EC50 [6] [µM]	EC50 [7] [µM]	EC50 [8] [µM]	EC50 [9] [µM]	EC50 [10] [µM]	Ki [11] [µM]	EC50 [12] [µM]
N[C@@H](CCS(=O)(=O)O)C(=O)O (racemic)	> 10	> 10	–	–	–	–	–	–	–	–	–	–
N[C@@H](CCS)C(=O)O (racemic) [CAS_778]	> 10	> 10	> 10	> 10	> 10	–	–	–	–	–	–	–
NC(CS(=O)O)C(=O)O (stereo unspecified) [CAS_109]	> 10	> 10	> 10	> 10	> 10	> 10	> 10	> 10	> 10	> 10	> 10	> 10
NC(CSSCC(N)C(=O)O)C(=O)O (stereo unspecified) [CAS_595]	> 10	> 10	> 10	> 10	> 10	–	–	–	–	–	> 10	–
N[C@@H](CS)C(=O)O [CAS_5862]	> 10	> 10	> 10	> 10	> 10	–	–	–	–	–	> 10	–
CSCC[C@@H](N)C(=O)O [CAS_6137]	> 10	> 10	> 10	> 10	> 10	–	–	–	–	–	> 10	–
N[C@H](CCS(=O)(=O)O)C(=O)O [D-homocysteic acid]	> 10	> 10	> 10	> 10	> 10	–	–	–	–	–	> 10	–
N[C@H](CCS(=O)O)C(=O)O [D-homocysteine sulfinic acid]	> 10	> 10	> 10	> 10	> 10	–	–	–	–	–	> 10	–
N[C@@H]1CCSC1=O [D-homocysteine thiolactone]	–	–	> 10	> 10	> 10	–	–	–	–	–	> 10	–
N[C@H](CS(=O)(=O)O)C(=O)O [L-cysteic acid]	–	> 10	> 10	> 10	> 10	> 10	> 10	> 10	> 10	> 10	> 10	> 10
N[C@@H](CCS(=O)O)C(=O)O [L-homocysteine sulfinic acid]	> 10	> 10	> 10	> 10	> 10	5.75	> 10	> 10	6.17	> 10	> 10	> 10
N[C@H]1CCSC1=O [NSC_134505]	> 10	–	> 10	> 10	> 10	–	–	–	–	–	> 10	–
